Results reported in patent US6472348B1, “Pyridone derivatives and herbicides” (Kumiai Chemical Industry Co., Ltd., priority 1996, dated 2002).

Experiments:
Type in all cases: in vivo
Design in all cases: scale not given here
[1] = test system: Diaitaria ciliaris (Di); assay: Test Example 3: herbicidal effects by upland field foliage treatment
Summary of the method: (§1)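 Seeds → sand pot (120 cm^2) → soil cover → greenhouse 2 wk → foliar treatment → greenhouse → herbicidal score at 14 d post-treatment against graded standards.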

[2] = test system: rice flatsedge (Ci); assay: as above
Summary of the method: as §1

[3] = test system: pale smartweed (Po); assay: as above
Summary of the method: as §1

[4] = test system: slender amaranth (Am); assay: as above
Summary of the method: as §1

[5] = test system: barnyardgrass (Ec); assay: as above
Summary of the method: as §1

[6] = test system: common lambsquarters (Ch); assay: as above
Summary of the method: as §1

[7] = test system: wheat (Tr); assay: Test Example 5: crop plant selectivity by upland field soil treatment (wheat), phytotoxicity; conditions: 21st day after application
Summary of the method: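 Seeds sown in pots of sand and covered with soil. Soil treatment applied. Plants cultured in a greenhouse. Effects rated by standard scale after 21 days.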

[8] = test system: cotton (Go); assay: Test Example 4: crop plant selectivity by upland field soil treatment (cotton), phytotoxicity; conditions: evaluated 21st day after application
Summary of the method: (§2)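 Cotton is sown alongside weeds in pots of sand, covered with soil, and the soil surface is treated. After greenhouse growth, herbicidal activity and phytotoxicity are graded on the 21st day.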

[9] = test system: pale smartweed (Po); assay: Test Example 4: crop plant selectivity by upland field soil treatment (cotton), herbicidal effects; conditions: evaluated 21st day after application
Summary of the method: as §2

[10] = test system: common lambsquarters (Ch); assay: as above; conditions: evaluated 21st day after application
Summary of the method: as §2

[11] = 100 g of the active ingredient per 10 ares, evaluated on the 14th day after treatment
[12] = 100 g active ingredient per 10 ares, evaluated 14th day after treatment

Row | SMILES | Herbicidal effects Di [1, 11] | Herbicidal effects Ci [2, 11] | Herbicidal effects Po [3, 11] | Herbicidal effects Am [4, 11] | Herbicidal effects Ec [5, 11] | Herbicidal effects Ch [6, 11] | Phytotoxicity Tr ([7]; dose 6.3 g ai/10a) | Phytotoxicity Go ([8]; dose 6.3 g ai/10 a) | Herbicidal effects Po ([9]; dose 6.3 g ai/10 a) | Herbicidal effects Ch ([10]; dose 6.3 g ai/10 a) | Phytotoxicity Tr ([7]; dose 1.6 g ai/10a) | Phytotoxicity Go ([8]; dose 1.6 g ai/10 a) | Herbicidal effects Po ([9]; dose 1.6 g ai/10 a) | Herbicidal effects Ch ([10]; dose 1.6 g ai/10 a) | Herbicidal effects Di [1, 12] | Herbicidal effects Ci [2, 12] | Herbicidal effects Po [3, 12] | Herbicidal effects Am [4, 12] | Herbicidal effects Ec [5, 12] | Herbicidal effects Ch [6, 12]
1 | Cn1c(C(F)(F)F)ccc(-c2cc(OCCCl)c(Cl)cc2F)c1=O [1-171] | 5 | 5 | 5 | 5 | 5 | 5 | 1 | 0 | 5 | 5 | – | – | – | – | – | – | – | – | – | –
2 | C#CCOc1cc(-c2ccc(C(F)(F)F)n(N)c2=O)c(F)cc1Cl [1-178] | 5 | 5 | 5 | 5 | 5 | 5 | – | 1 | 5 | 5 | 1 | 1 | 5 | 5 | – | – | – | – | – | –
3 | COc1cc(-c2ccc(C(F)(F)F)n(N)c2=O)c(F)cc1Cl [1-179] | 5. | 5 | 5 | 5 | 5 | 5 | 1 | 0 | 5 | 5 | – | – | – | – | – | – | – | – | – | –
4 | CCOCOc1cc(-c2ccc(C(F)(F)F)n(C)c2=O)c(F)cc1Cl [1-181] | 5 | 5 | 5 | 5 | 5 | 5 | 1 | 0 | 5 | 5 | – | – | – | – | – | – | – | – | – | –
5 | C#CC(C)Oc1cc(Cl)cc(F)c1-c1ccc(C(F)(F)F)n(C)c1=O (centres unmarked) [1′-5] | – | – | – | – | – | – | 1 | 0 | 5 | 5 | 1 | 0 | 5 | 5 | 5 | 5 | 5 | 5 | 5 | 5
6 | C=CC(C)Oc1cc(-c2ccc(C(F)(F)F)n(C)c2=O)c(F)cc1Cl (centres unmarked) [Compound 1-182] | 5 | 5 | 5 | 5 | 5 | 5 | 1 | 0 | 5 | 5 | – | – | – | – | – | – | – | – | – | –
7 | CCON=Cc1cc(-c2ccc(C(F)(F)F)n(C)c2=O)c(F)cc1Cl [Compound 1-187] | – | – | – | – | – | – | 1 | 0 | 5 | 5 | – | – | – | – | 5 | 5 | 5 | 5 | 5 | 5
8 | CCOC(=O)CON=Cc1cc(-c2ccc(C(F)(F)F)n(C)c2=O)c(F)cc1Cl [Compound 1-191] | – | – | – | – | – | – | 1 | 1 | 5 | 5 | – | – | – | – | 5 | 5 | 5 | 5 | 5 | 5
9 | C=CC(O)c1cc(-c2ccc(C(F)(F)F)n(C)c2=O)c(F)cc1Cl (centres unmarked) [Compound 1-197] | – | – | – | – | – | – | 1 | 1 | 5 | 5 | – | – | – | – | 5 | 5 | 5 | 5 | 5 | 5
10 | C#CC(O)c1cc(-c2ccc(C(F)(F)F)n(C)c2=O)c(F)cc1Cl (centres unmarked) [Compound 1-202] | – | – | – | – | – | – | – | 1 | 5 | 5 | 1 | 1 | 5 | 5 | 5 | 5 | 5 | 5 | 5 | 5
11 | CSCOc1cc(-c2ccc(C(F)(F)F)n(C)c2=O)c(F)cc1Cl [Compound 1-208] | – | – | – | – | – | – | 1 | 1 | 4 | 5 | – | – | – | – | 5 | 5 | 5 | 5 | 5 | 5
12 | C#CCN1C(=O)COc2cc(Cl)c(-c3ccc(C(F)(F)F)n(C)c3=O)cc21 [Compound 2-25] | – | – | – | – | – | – | 2 | 0 | 5 | 5 | 1 | 0 | 5 | 5 | 5 | 5 | 5 | 5 | 5 | 5
13 | C=CCN1C(=O)COc2cc(Cl)c(-c3ccc(C(F)(F)F)n(C)c3=O)cc21 [Compound 2-26] | – | – | – | – | – | – | 1 | 1 | 5 | 5 | – | – | – | – | 5 | 5 | 5 | 5 | 5 | 5
14 | Cc1cc2c(-c3ccc(C(F)(F)F)n(C)c3=O)c(F)cc(Cl)c2o1 [Compound 4-1] | – | – | – | – | – | – | 2 | 1 | 5 | 5 | 1 | 0 | 5 | 5 | 5 | 5 | 5 | 5 | 5 | 5
15 | CCc1cc2c(-c3ccc(C(F)(F)F)n(C)c3=O)c(F)cc(Cl)c2o1 [Compound 4-2] | – | – | – | – | – | – | – | 2 | 5 | 5 | 1 | 1 | 5 | 5 | 5 | 5 | 5 | 5 | 5 | 5
16 | CCCc1cc2c(-c3ccc(C(F)(F)F)n(C)c3=O)c(F)cc(Cl)c2o1 [Compound 4-3] | – | – | – | – | – | – | 2 | 0 | 5 | 5 | – | – | – | – | 5 | 5 | 5 | 5 | 5 | 5
17 | CCc1cc2c(Cl)cc(F)c(-c3ccc(C(F)(F)F)n(C)c3=O)c2o1 [Compound 5-2] | – | – | – | – | – | – | 1 | 1 | 5 | 5 | – | – | – | – | 5 | 5 | 5 | 5 | 5 | 5
